The record followed here is US10406150B2, “Method for treatment of primary hormone resistant endometrial and breast cancers” (Lipoxen Technologies Limited, priority 2014, dated 2019).

For this test, the system named is secondary PR negative Ishikawa cells. As to the kind of experiment: Model of secondary PR-negative endometrial cancer (progestin-resistant Ishikawa xenograft). Type of test: in vivo, mice. The note with it: day 7; MPA 250 mg/kg/day i.p. 5 days per week, SC 0.3 mg/kg i.m. each alternate day; mean ± SEM. As to the method:
When the surviving cells had grown to a high density but were still less than confluent, cells were subcloned using 0.02% EDTA and 0.25% trypsin prepared in Hanks' balanced salt solution. MPA-containing medium was replaced every 2-3 days. Cells proliferating in 10 μM MPA with the same doubling time as the initial Ishikawa cells proliferating in the medium without MPA, were considered as secondary progestin-resistant Ishikawa cells.
2×10^6 secondary PR negative Ishikawa cells were inoculated into the flanks of MF-1 female nude mice in 100 μl Matrigel.
1) Vehicle control group: vehicle only, −0.9% sodium chloride for injection i.m each alternate day and i.p. for 5 days per week.
2) MPA only control group: medroxyprogesterone acetate (MPA) (250 mg/kg/day) i.p. for 5 days per week.
Tumors were measured with vernier calipers weekly. Tumor volumes (mm^3) were calculated using the modified ellipsoid formula: (length (mm)×width (mm)^2)/2. The ratio (percentage) of “Tumor volume at day n” to “tumor volume at day “0” was calculated for each animal. At the end of the experiments (day 35) animals were euthanized.

Consider `CC(=O)O[C@]1(C(C)=O)CC[C@H]2[C@@H]3C[C@H](C)C4=CC(=O)CC[C@]4(C)[C@H]3CC[C@@]21C` [MPA, medroxyprogesterone acetate], for which the “Tumor volume at day n/tumor volume at day “0”” value turned out to be 170 ± 19%.
